# “Also recorded” adds a separate entry of the source. Read-outs that look alike come from different tables or passages of the source. Marks after values point to notes of the source that are not given here.
# Legend:
# H295R cell line [1] = test: Adrenocortical function in vitro test: secretion of cortisol and corticosterone, Group B compounds; format: cell-based; conditions: H295R cells; for EC50: 0.1-10000 nM, HPLC-MS/MS
# Sprague-Dawley rats [2] = test: Continuous infusion at 2 times the MIR for 1 hour, Group B compounds; format: in vivo
# [3] = test system: circulatory function of rats; conditions: rat, in vivo
# Procedure: First, animal models were established. […] At least one week after surgery, data were recorded.
# Finally, the pharmacological effects, adverse reactions, and behavioral manifestations of the rats were observed and recorded
# After data acquisition, the test was stopped.
# Sprague-Dawley rats [4] = test: animal or person; format: in vivo; conditions: rats
# Text: (§1) Evaluating indicator: The end point of anesthesia: the disappearance of forepaw righting reflex (lorr) was used as the end point of anesthesia; General anesthesia effect: the disappearance of forepaw righting reflex in rats lasting for 30 seconds is taken as the index of general anesthesia effect; Anesthesia recovery index: the recovery of rat forepaw righting reflex was used as the index of anesthesia recovery.
# Sprague-Dawley rats [5] = test: Pharmacological characteristics at equivalent doses (2ED50), Group A compounds; format: in vivo; conditions: 2ED50, tail vein
# Sprague-Dawley rats [6] = test: animal or person; format: in vivo; conditions: rats; remark: listed apart in the source
# Text: as §1, with “LORR” for “the disappearance of forepaw righting reflex (lorr)”
# H295R cell line [7] = test: Adrenocortical function in vitro test: secretion of cortisol and corticosterone, Group A compounds; format: cell-based; conditions: H295 cells; for EC50: 0.1-10000 nM, HPLC-MS/MS
# Sprague-Dawley rats [8] = format: in vivo; conditions: tail vein
# SD rats [9] = test system: SD rats
# How it was run: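 Adult male SD rats (250–350 g) received continuous infusion. Read-outs: time from infusion start to […]; after 1 h infusion, time from stop to return of forepaw turning reflex and to full recovery.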
# Sprague-Dawley rats [10] = test: Pharmacological effect and adverse reactions under the equivalent dose (2ED50), Group C compounds; format: in vivo
# Text: (§2) Evaluation index: onset time: from the completion of drug injection to the disappearance of forepaw righting reflex in rats; Duration of anesthesia: the time from the disappearance of rat forepaw righting reflex to the recovery of rat forepaw righting reflex; Recovery time of anesthesia: the time from the […] to complete recovery;
# Sprague-Dawley rats [11] = format: in vivo; conditions: tail vein; remark: listed apart in the source
# Sprague-Dawley rats [12] = test: Pharmacological effect and adverse reactions under the equivalent dose (2ED50), Group D compounds; format: in vivo
# Text: as §2
# Sprague-Dawley rats [13] = test: animal or person
# Procedure: (§3) Adult male Sprague-Dawley rats (250-300 g) were selected for the experiment. […] The anesthesia effects of the compounds were assessed in rats using a LORR assay and a period >30 s was considered as an indicator of general anesthesia.
# Sprague-Dawley rats [14] = test system: Sprague-Dawley rats
# Procedure: Adult male Sprague-Dawley rats with body weight ranging from 250 to 300 gm were selected for continuous infusion test. […] Time to recovery of righting reflex from stopping infusion, and time to fully awake from stopping infusion were recorded.
# SD rats [15] = test system: SD rats; remark: listed apart in the source
# Procedure: Experimental Methods: Adult male SD rats with body weight ranging from 250 g to 350 g were selected for continuous infusion test.
# Evaluation indexes: the time from the beginning of continuous infusion to the […] of sedation in rats; the time from the cessation of infusion to the restoration of the forepaw turning reflex after 1 hour of continuous infusion; the time from the cessation of infusion to the complete restoration of rats after 1 hour of continuous infusion.
# Sprague-Dawley rats [16] = test: animal or person; remark: listed apart in the source
# Procedure: as §3
# [17] = read-out: EC50 (Corticosterone)
# [18] = continuous infusion 2 x MIR 1 hour, rats affected/rats
# [19] = LORR, up and down method, tail vein, brackets = 95% confidence limit
# [20] = after 1 hour continuous infusion at 2 times the MIR, SD rats
# [21] = continuous tail vein infusion at 2 times the MIR, SD rats
# [22] = 2ED50, tail vein, rats, n=8, unit s
# [23] = equivalent dose (2ED50), number of rats of n = 8
# [24] = equivalent dose (2 × ED50), number of rats of n = 8
# [25] = LORR in rats, tail vein, brackets = 95% confidence limit
compound,measurement,setting,value
"COC(=O)C1(OC(=O)c2cncn2[C@H](C)c2ccccc2)CC1 [CPMM, cyclopropyl methoxycarbonyl metamidate, reference compound]",Corticosterone as an indicator to determine the presence of inhibition,H295R cell line [1],1 (Mild inhibition (using CPMM as a control))
same,Cortisol as an indicator to determine the presence of inhibition,H295R cell line [1],1 (Mild inhibition (using CPMM as a control))
same,EC50,H295R cell line [1]; [17],> 100 nM
same,EC50,H295R cell line [1]; read-out: EC50 (Cortisol),> 10 nM
same,Recovery time after stopping infusion,"Sprague-Dawley rats [2]; after 1 hour continuous infusion at 2 times the MIR, rats",7 to 8 min
same,Types and incidence of adverse reactions: Convulsions,Sprague-Dawley rats [2]; [18],"Convulsions (3/6), Tremor"
same,Types and incidence of adverse reactions: Myoclonus,Sprague-Dawley rats [2]; [18],"(5/6), Myoclonus (5/6)"
same,Types and incidence of adverse reactions: Tremor,Sprague-Dawley rats [2]; [18],"(5/6), Myoclonus (5/6)"
same,Onset time,"Sprague-Dawley rats [2]; continuous tail vein infusion at 2 times the MIR, emulsion, rats",3 to 4 min
same,"inhibitory effect on the circulatory function (MAP, HR)",[3],almost no inhibitory effect on the circulatory function
same,ED50,Sprague-Dawley rats [4]; [19],0.49(0.45-0.53)* mg/kg
same,Approximate therapeutic index,Sprague-Dawley rats [4],42.0
same,Onset time,Sprague-Dawley rats [5],0.26 ± 0.08 min
same,Righting reflex duration,Sprague-Dawley rats [5],1.62 ± 0.63 min
same,ED50,Sprague-Dawley rats [6]; [19],0.49(0.45-0.53)* mg/kg
same,Approximate therapeutic index,Sprague-Dawley rats [6],42.0
same,Corticosterone as an indicator to determine the presence of inhibition,H295R cell line [7],1 (Mild inhibition (using CPMM as a control))
same,Cortisol as an indicator to determine the presence of inhibition,H295R cell line [7],1 (Mild inhibition (using CPMM as a control))
same,EC50,H295R cell line [7]; [17],> 100 nM
same,EC50,H295R cell line [7]; read-out: EC50 (Cortisol),> 10 nM
same,Minimal lethal dose,Sprague-Dawley rats [8],20.6 mg/kg
same,After the infusion is stopped: Righting reflex recovery time,SD rats [9]; [20],8 to 10 min
same,Recovery time after stopping infusion,SD rats [9]; [20],10 to 15 min
same,Types and incidence of adverse reactions: Hindlimb rigidity,SD rats [9]; [18],Hindlimb rigidity(4/6)
same,Types and incidence of adverse reactions: Red urine,SD rats [9]; [18],6/6
same,Types and incidence of adverse reactions: Tremor,SD rats [9]; [18],4/6
same,Sedation onset time,SD rats [9]; [21],<5 min
same,Righting reflex duration,"Sprague-Dawley rats [10]; 2ED50, tail vein, rats, n=8",2.71 ± 0.97 min
same,Sedation duration,"Sprague-Dawley rats [10]; 2ED50, tail vein, rats, n=8",8.48 ± 2.58 min
same,Onset time,Sprague-Dawley rats [10]; [22],<30 s
same,Adverse reaction: Convulsions,Sprague-Dawley rats [10]; [23],0
same,"Adverse reaction: Cough, broken-winded",Sprague-Dawley rats [10]; [23],0
same,Adverse reaction: Euphoria,Sprague-Dawley rats [10]; [23],0
same,Adverse reaction: Red urine,Sprague-Dawley rats [10]; [23],8
same,"Adverse reaction: Slower breathing, Tetany convulsion",Sprague-Dawley rats [10]; [23],3
same,"Adverse reaction: Systemic stiffness, Convulsions, Opisthotonus",Sprague-Dawley rats [10]; [23],0
same,Adverse reaction: Tongue stretching,Sprague-Dawley rats [10]; [23],4
same,Adverse reaction: Tremor,Sprague-Dawley rats [10]; [23],5
same,Adverse reaction: the four limbs rigidity,Sprague-Dawley rats [10]; [23],4
same,Minimal lethal dose,Sprague-Dawley rats [11],20.6 mg/kg
same,Righting reflex duration,"Sprague-Dawley rats [12]; 2ED50, tail vein, rats, n=8",2.71 ± 0.97 min
same,Sedation duration,"Sprague-Dawley rats [12]; 2ED50, tail vein, rats, n=8",8.48 ± 2.58 min
same,Onset time,Sprague-Dawley rats [12]; [22],<30 s
same,Adverse reaction: Convulsions,Sprague-Dawley rats [12]; [24],0
same,"Adverse reaction: Cough, broken-winded",Sprague-Dawley rats [12]; [24],0
same,Adverse reaction: Euphoria,Sprague-Dawley rats [12]; [24],0
same,Adverse reaction: Four limbs rigidity,Sprague-Dawley rats [12]; [24],2
same,"Adverse reaction: Slower breathing, Tetany convulsion",Sprague-Dawley rats [12]; [24],0
same,"Adverse reaction: Systemic stiffness, Convulsions, Opisthotonus",Sprague-Dawley rats [12]; [24],0
same,Adverse reaction: Tongue stretching,Sprague-Dawley rats [12]; [24],4
same,Adverse reaction: Tremor,Sprague-Dawley rats [12]; [24],2
same,ED50,Sprague-Dawley rats [13]; [25],0.78(0.74-0.82)* mg/kg
same,Approximate therapeutic index,Sprague-Dawley rats [13]; rats,>10
same,Minimal lethal dose,Sprague-Dawley rats [13]; rats,>7.8 mg/kg
same,Recovery time after stopping infusion,"Sprague-Dawley rats [14]; LORR maintained for 1 hour, 2 times the MIR",7 to 8 min
same,Onset time,"Sprague-Dawley rats [14]; continuous infusion, 2 times the MIR",3 to 4 min
same,Types and incidence of adverse reactions,"Sprague-Dawley rats [14]; continuous infusion, (animals affected/animals)","Convulsions(3/6),; also recorded: Tremor(5/6),; also recorded: Myoclonus(5/6),"
same,After the infusion is stopped: Righting reflex recovery time,SD rats [15]; [20],8 to 10 min
same,Recovery time after stopping infusion,SD rats [15]; [20],10 to 15 min
same,Types and incidence of adverse reactions: Hindlimb rigidity,SD rats [15]; [18],Hindlimb rigidity(4/6)
same,Types and incidence of adverse reactions: Red urine,SD rats [15]; [18],6/6
same,Types and incidence of adverse reactions: Tremor,SD rats [15]; [18],4/6
same,Sedation onset time,SD rats [15]; [21],<5 min
same,ED50,Sprague-Dawley rats [16]; [25],0.78(0.74-0.82)* mg/kg
same,Approximate therapeutic index,Sprague-Dawley rats [16]; rats,>10
same,Minimal lethal dose,Sprague-Dawley rats [16]; rats,>7.8 mg/kg
